In US20020103172A1, “VITAMIN D3 DERIVATIVES” (priority 1996, published 2002):
Like-named read-outs stand apart in the source and are kept apart here.

Key:
[1] = tested on: HaCaT, a spontaneously immortalized, non-tumorigenic human skin keratinocyte cell line; assay: HaCaT antiproliferative assay measuring 3H-thymidine uptake; type: cell-based; settings: for HaCaT rel.: ratio between IC50 of 1,25(OH)2D3 and IC50 of the compound, 50% inhibition of 3H-thymidine incorporation, value >1 = more active than 1,25(OH)2D3; for potency in the HaCaT-assay (psoriasis model), in words: compared with 1,25(OH)2D3
Excerpt: A useful assay for the rating of test compounds for antiproliferative activity in skin cells, e.g. antipsoriatic effect, is the in vitro assay using HaCaT, a spontaneously immortalized, non-tumorigenic human skin keratinocyte cell line (Mørk Hansen, C. et al., J. Invest. Dermatol. 1, 44-48 (1996)), measuring ^3H -thymidine uptake.

mouse spleen lymphocytes = assay: Mixed lymphocyte reaction assay (MLR), allogeneic stimulation, 3H-thymidine incorporation; type: cell-based; settings: for MLR rel.: ratio between IC50 of 1,25(OH)2D3 and IC50 of the compound, 72 hours incubation, 3H-thymidine incorporation, value >1 = more active than 1,25(OH)2D3
Description: An in vitro assay for the rating of test compounds for immunosuppressive potency is the mixed lymphocyte reaction assay, “MLR”, measuring the allogeneic stimulation of mouse spleen lymphocytes: lymphocytes, obtained from the spleens of BALB/c and CB6F1 mice, are stimulated by co-cultivating 5×10^6/ml cells from BALB/c mice (responders) with 7.5×10^6/ml cells from CB6F1 mice (inducers). The mixed cultures of lymphocytes are incubated with the test compounds for 72 hours. Cellular DNA-synthesis is assessed by the incorporation of ^3H-thymidine in the DNA.

calcium metabolism [2] = settings: rat, in vivo
Description: (§1) The calcemic activity of the compounds was determined in rats in vivo, as previously described (Binderup, L., Bramm, E., Biochem. Pharmacol. 37, 889-895 (1988)).

calcium metabolism [3] = assay: Calcemic activity in rats in vivo; settings: calcemic activity relative to 1,25(OH)2D3, low values preferred
Description: as §1

Calc. rel. (calcium metabolism [2]) | Calc. rel. (calcium metabolism [3]) | Compound | HaCaT rel. [1] | MLR rel. (mouse spleen lymphocytes) | potency in the HaCaT-assay (psoriasis model), in words [1] | immunosuppressive activity (MLR), in words (mouse spleen lymphocytes)
1 | – | C=C1/C(=C\C=C2/CCC[C@]3(C)[C@@H]([C@H](C)CCCC(C)(C)O)CC[C@@H]23)C[C@@H](O)C[C@@H]1O [1,25, 1α,25-dihydroxy-vitamin D3, reference compound] | 1 | 1 | – | –
– | 0.54 | C=C1C(=CC=C2CCCC3(C)C(C(C)CCCCC(O)(CC)CC)=CCC23)CC(O)CC1O [Compound 107, 1(S),3(R)-Dihydroxy-20(R)-(5-ethyl-5-hydroxyhept-1-yl)-9,10-seco-oregna-5(Z),7(E),10(19),16-tetraene] | 43 | 5 | considerably more potent than 1,25(OH)2D3 | potent effects
– | 1.47 | C=C1C(=CC=C2CCCC3(C)C(C(C)C=CC=CC(O)(CC)CC)=CCC23)CC(O)CC1O [Compound 111, 1(S),3(R)-Dihydroxy-20(R)-(5-ethyl-5-hydroxyhepta-1(E),3(E)-dien-1-yl)-9,10-seco-pregna-5(Z),7(E),10(19)16-tetraene] | 51 | 6.5 | considerably more potent than 1,25(OH)2D3 | potent effects
